The values below come from patent EP0728482A2, “Use of hcp specific compounds to enhance erythropoiesis” (SMITHKLINE BEECHAM CORPORATION, priority 1995, dated 1996).

Molecules are shown by their SMILES.

The Ki is the equilibrium dissociation constant of an inhibitor or competing ligand from its target.

In this test the target is T1, human SH-PTP2 SH2 domain (Homo sapiens, UniProt Q06124).
T1 construct: made in house; host or cells: E. coli (pGEX-2T)
T1 sequence (Q06124 1-106): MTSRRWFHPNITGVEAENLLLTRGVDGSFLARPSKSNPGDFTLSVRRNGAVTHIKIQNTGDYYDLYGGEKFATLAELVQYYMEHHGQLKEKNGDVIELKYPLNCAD
Nature of the test: ELISA-based SH2 domain / pY peptide binding assay, SH-PTP2 SH2 domain. As to conditions: Ki calculated from IC50 with the expanded equation. Here is the method: The inhibitory activity of compounds at the different human SH2 domains was determined in vitro using SH2 domains expressed as fusion proteins in E. coli. The SH2 domains used herein were the human forms of the src SH2 domain, Grb2 SH2 domain, lck SH2 domain, fyn SH2 domain, SH-PTP2 SH2 domain, p85 SH2 domain and hcp SH2 domain.
Fusion proteins having the structure GST-X-SH2 were prepared as described in the GST gene fusion kit system available from Pharmacia (New Jersey). GST is the tagging sequence glutathione s-transferase epitope (SEQ ID NO: 8) for fyn, Grb2 and SH-PTP2 and is the tagging sequence glutathione s-transferase epitope (SEQ ID NO: 9) for p85. SH2 refers to the SH2 domains of fyn, Grb2, p85 and SH-PTP2 which were expressed and purified using glutathione Sepharose 4B (Pharmacia) according to "Current Protocols in Molecular Biology", ed. FM Ausubel et al., pub. John Wiley and Sons, Inc., (1995), p 16.7.1. X is an appropriate linker, preferably of 6 to 21 base pairs, used to keep the SH2 construct in frame and complement cloning. As such, the sequence of X is not critical. One skilled in the art can readily construct the appropriate linker. The DNA sequence encoding each GST-X-SH2 fusion protein was designed such that the indicated restriction sites (BamH1 and EcoRI) flank the SH2 region. […]

As for `CCCCCCNC(=O)[C@H]1CC[C@H](CNC(=O)c2ccc(C(=O)c3ccc(C(=O)O)cc3)cc2)CC1` [Compound 6, 4-carboxy-benzophenone-4-carboxamido-trans-4-methyl-cyclohexyl-N-hexyl carboxamide], the inhibition constant Ki is above 1000 µM.
